According to ChEMBL document CHEMBL1201862, “PubChem BioAssay data set” (2004):
Activity calls are given as the source filed them.

Legend:
Bcl-2-related protein A1 [1] = molecular target: T1, Bcl-2-related protein A1 (Mus musculus, UniProt Q07440); experiment: small-molecule antagonists of Bfl-1/BH3 interaction – biochemical, TR-FRET, mouse Bfl-1, confirmation (AID 621);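 also: TR-FRET binding of GST-Bfl-1 to FITC-labelled Bid peptide via terbium antibody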
T1 sequence (Q07440 whole entry): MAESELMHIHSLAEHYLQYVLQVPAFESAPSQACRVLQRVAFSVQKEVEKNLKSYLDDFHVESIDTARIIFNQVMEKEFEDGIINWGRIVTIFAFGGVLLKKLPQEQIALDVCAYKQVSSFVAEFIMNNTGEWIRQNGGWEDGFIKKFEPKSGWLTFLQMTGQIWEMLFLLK

Bcl-2-related protein A1 [2] = molecular target: T1, Bcl-2-related protein A1; experiment: Bfl-1 binding inhibitors, SAR follow-up, biochemical, fluorescence polarization (AID 1070)
[3] = molecular target: Glyceraldehyde-3-phosphate dehydrogenase (Homo sapiens, UniProt P04406)
Glyceraldehyde-3-phosphate dehydrogenase, sequence (P04406 whole entry): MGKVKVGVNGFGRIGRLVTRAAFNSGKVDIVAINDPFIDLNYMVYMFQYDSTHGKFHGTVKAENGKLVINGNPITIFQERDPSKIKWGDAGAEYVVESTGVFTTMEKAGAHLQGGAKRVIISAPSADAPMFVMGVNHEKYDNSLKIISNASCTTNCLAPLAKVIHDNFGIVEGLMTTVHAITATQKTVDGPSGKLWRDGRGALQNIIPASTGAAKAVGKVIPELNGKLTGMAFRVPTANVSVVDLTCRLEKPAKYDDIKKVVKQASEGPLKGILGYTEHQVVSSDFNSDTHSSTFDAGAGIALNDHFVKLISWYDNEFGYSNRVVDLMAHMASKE

Mucolipin-3 [4] = molecular target: T2, Mucolipin-3 (Homo sapiens, UniProt Q8TDD5); experiment: human mucolipin-3 activators, concentration-response – cell-based, calcium fluorescence, dose response (AID 2510); assay type: functional
T2 sequence (Q8TDD5 whole entry): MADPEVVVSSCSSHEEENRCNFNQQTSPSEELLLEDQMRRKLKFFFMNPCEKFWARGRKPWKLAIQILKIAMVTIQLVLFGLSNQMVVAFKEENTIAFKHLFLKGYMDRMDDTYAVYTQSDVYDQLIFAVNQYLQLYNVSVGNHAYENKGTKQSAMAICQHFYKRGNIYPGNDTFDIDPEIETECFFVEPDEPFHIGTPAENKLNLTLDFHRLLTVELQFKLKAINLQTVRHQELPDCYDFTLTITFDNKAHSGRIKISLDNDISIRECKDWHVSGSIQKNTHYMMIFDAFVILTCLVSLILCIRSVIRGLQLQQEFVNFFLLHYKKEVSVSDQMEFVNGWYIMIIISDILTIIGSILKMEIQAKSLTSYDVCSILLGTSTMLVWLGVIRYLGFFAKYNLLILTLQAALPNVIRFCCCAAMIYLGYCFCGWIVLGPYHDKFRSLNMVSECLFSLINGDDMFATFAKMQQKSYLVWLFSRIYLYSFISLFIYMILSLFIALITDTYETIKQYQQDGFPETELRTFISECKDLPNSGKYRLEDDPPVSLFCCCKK

Ion channel NompC [5] = molecular target: T3, Ion channel NompC (Danio rerio, UniProt Q7T1G6); experiment: Fluorescence counterscreen assay for TRPML3 agonists: dose response cell-based high-throughput screening assay to identify agonists of the transient receptor potential channel N1 (TRPN1). [Related pubchem assays: 1526, 1424, 1448 ]; assay type: functional
T3 sequence (Q7T1G6 whole entry): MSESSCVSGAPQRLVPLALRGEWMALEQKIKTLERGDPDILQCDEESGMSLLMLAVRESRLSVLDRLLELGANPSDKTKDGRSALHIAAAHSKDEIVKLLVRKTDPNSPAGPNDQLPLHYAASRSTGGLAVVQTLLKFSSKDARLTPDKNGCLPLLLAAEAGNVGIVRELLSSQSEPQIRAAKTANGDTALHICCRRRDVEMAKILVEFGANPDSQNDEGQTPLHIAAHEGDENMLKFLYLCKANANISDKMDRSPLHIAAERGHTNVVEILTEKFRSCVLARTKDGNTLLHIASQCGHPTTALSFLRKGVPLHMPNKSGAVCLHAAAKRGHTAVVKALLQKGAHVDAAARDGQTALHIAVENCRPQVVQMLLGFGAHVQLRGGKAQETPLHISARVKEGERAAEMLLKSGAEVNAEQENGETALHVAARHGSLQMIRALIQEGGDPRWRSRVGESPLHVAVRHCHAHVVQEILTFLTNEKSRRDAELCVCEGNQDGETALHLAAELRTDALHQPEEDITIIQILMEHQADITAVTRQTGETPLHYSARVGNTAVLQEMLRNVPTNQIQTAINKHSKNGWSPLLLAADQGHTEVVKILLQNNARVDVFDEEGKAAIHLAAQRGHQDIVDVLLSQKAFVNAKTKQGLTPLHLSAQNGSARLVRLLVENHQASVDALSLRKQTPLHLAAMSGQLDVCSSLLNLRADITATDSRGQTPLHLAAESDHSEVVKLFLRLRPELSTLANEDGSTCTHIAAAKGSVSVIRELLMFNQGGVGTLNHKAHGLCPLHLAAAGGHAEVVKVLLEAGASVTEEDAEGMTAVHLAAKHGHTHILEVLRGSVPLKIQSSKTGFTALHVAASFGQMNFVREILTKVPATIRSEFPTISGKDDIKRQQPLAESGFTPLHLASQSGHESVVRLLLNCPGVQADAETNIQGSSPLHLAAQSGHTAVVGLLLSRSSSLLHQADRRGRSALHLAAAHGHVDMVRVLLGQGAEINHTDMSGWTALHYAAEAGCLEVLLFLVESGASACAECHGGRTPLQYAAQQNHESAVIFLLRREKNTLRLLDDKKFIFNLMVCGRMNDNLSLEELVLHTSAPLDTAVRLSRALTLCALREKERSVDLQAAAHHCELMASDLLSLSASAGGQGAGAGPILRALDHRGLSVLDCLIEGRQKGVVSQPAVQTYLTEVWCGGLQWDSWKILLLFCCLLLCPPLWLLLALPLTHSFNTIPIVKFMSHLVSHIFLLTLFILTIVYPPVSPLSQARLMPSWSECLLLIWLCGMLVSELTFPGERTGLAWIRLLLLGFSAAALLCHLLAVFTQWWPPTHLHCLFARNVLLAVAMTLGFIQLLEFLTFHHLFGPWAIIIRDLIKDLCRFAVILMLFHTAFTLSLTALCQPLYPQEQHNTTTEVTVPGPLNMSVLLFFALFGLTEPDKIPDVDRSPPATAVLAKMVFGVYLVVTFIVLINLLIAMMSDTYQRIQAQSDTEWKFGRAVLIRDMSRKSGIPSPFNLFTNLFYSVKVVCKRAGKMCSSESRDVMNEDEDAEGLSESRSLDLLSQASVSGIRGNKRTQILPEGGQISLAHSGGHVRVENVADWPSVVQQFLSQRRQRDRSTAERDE

Ion channel NompC [6] = molecular target: T3, Ion channel NompC; experiment: Late stage counterscreen for the probe development effort to identify selective agonists of the Transient Receptor Potential Channels 3 (TRPML3): fluorescence-based cell-based dose response assay for TRPN1 agonists.; assay type: functional
Mucolipin-3 [7] = molecular target: T2, Mucolipin-3; experiment: Dose response cell-based high-throughput screening assay for agonists of the transient receptor potential channel ML3 (TRPML3). [Related pubchem assays: 1526, 1424, 1448 ]; assay type: functional
[8] = molecular target: T4, Dual specificity protein phosphatase 6 (Rattus norvegicus, UniProt Q64346); experiment: inhibition of rat DUSP6 enzyme activity – biochemical, in vitro, primary screen (AID 425)
T4 sequence (Q64346 whole entry): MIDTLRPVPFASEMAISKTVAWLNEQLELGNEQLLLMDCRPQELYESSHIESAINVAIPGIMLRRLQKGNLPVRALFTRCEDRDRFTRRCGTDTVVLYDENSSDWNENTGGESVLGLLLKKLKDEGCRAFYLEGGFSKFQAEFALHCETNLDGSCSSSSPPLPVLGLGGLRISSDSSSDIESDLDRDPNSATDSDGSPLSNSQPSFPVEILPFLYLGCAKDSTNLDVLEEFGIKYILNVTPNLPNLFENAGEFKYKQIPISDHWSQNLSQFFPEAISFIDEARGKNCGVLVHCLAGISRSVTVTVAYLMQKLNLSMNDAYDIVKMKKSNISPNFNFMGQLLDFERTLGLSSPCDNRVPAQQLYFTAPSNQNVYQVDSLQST

[9] = molecular target: T5, Heat shock factor protein 1 (Mus musculus, UniProt P38532); experiment: enhancement of HSF1-driven luciferase signal – cell-based, NIH3T3, luminescence, dose retest, confirmation (AID 435004); assay type: functional;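 also: stress induced by proteasome inhibitor MG132 added 30 min after compound; luciferase reporter driven by HSF1 response element in NIH3T3 cells; actives raise luminescence as potentiators of the MG132 stress response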
T5 sequence (P38532 whole entry): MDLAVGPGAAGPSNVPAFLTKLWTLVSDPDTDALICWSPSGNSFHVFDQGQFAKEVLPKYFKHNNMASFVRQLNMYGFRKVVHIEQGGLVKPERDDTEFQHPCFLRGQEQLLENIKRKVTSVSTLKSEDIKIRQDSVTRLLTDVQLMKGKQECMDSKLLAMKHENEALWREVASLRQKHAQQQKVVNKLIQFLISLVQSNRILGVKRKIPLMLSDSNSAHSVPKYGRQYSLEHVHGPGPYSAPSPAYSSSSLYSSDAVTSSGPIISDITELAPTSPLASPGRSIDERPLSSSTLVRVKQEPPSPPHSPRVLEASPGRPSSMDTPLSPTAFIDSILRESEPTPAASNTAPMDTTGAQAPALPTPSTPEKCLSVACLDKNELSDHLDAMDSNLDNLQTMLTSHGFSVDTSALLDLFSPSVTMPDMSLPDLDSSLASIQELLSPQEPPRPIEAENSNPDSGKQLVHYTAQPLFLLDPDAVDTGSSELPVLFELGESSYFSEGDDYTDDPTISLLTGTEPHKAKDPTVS

[10] = Luminescence Cell-Based Dose Confirmation HTS to Identify Inhibitors of Polyadenylation.; assay type: functional
[11] = molecular target: T6, Orexin/Hypocretin receptor type 1 (Homo sapiens, UniProt O43613); experiment: (§1) Fluorescence-based cell-based high throughput dose response assay for antagonists of the orexin 1 receptor (OX1R; HCRTR1). [Related pubchem assays (depositor defined):AID434989, AID435008, AID463079, AID485270, AID492963, AID492964, AID492965, AID493232, AID504717, AID504718]; assay type: functional
T6 sequence (O43613 whole entry): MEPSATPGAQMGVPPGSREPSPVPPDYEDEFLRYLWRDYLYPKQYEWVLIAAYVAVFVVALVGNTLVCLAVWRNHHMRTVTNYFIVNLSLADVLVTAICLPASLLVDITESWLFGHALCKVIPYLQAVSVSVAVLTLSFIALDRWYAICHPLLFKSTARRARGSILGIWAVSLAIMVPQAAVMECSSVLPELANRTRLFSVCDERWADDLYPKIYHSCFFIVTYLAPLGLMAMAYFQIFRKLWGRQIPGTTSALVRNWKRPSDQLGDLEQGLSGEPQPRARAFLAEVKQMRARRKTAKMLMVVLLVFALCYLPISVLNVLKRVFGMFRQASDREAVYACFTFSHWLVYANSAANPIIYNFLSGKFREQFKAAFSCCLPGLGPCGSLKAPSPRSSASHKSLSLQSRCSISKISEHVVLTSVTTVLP

[12] = molecular target: T6, Orexin/Hypocretin receptor type 1; experiment: as §1, with “Homogeneous Time Resolved Fluorescence (HTRF)-based” for “Fluorescence-based”; assay type: functional
Orexin receptor type 2 [13] = molecular target: T7, Orexin receptor type 2 (Homo sapiens, UniProt O43614); experiment: Counterscreen assay for antagonists of the orexin 1 receptor (OX1R; HCRTR1): Homogeneous Time Resolved Fluorescence (HTRF)-based cell-based dose response assay for antagonists of the orexin 2 receptor (OX2R; HCRTR2), run by assay provider.; assay type: functional
T7 sequence (O43614 whole entry): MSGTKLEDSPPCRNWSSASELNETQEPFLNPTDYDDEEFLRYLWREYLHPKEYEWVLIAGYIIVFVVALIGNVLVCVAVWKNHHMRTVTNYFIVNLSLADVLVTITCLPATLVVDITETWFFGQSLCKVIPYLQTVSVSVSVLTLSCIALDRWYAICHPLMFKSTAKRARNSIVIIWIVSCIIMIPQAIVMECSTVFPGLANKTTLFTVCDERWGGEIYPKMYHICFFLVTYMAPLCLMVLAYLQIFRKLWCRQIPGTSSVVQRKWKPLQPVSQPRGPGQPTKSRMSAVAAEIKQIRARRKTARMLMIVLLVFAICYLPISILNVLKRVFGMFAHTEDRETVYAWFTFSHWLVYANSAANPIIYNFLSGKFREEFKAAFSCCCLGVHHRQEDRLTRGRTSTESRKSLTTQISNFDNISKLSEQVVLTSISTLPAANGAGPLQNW

[14] = (§2) Counterscreen for antagonists of the orexin 1 receptor (OX1R; HCRTR1): Fluorescence-based cell-based high throughput dose response assay to identify antagonists of the parental CHO cell line. [Related pubchem assays (depositor defined):AID434989, AID435008, AID463079, AID485270, AID492963, AID492964, AID492965, AID493232, AID504699, AID504701]; assay type: functional
Orexin receptor type 2 [15] = molecular target: T7, Orexin receptor type 2; experiment: Counterscreen assay for antagonists of the orexin 1 receptor (OX1R; HCRTR1): Fluorescence-based cell-based dose response assay for antagonists of the orexin 2 receptor (OX2R; HCRTR2), run by assay provider.; assay type: functional
CHO-K1 = experiment: as §2, with “Homogeneous time resolved fluorescence (HTRF)-based” for “Fluorescence-based”, “cell-based” for “cell-based high throughput”, “CHO-K1” for “CHO”; assay type: functional; settings: Cricetulus griseus
[16] = M. tuberculosis growth inhibition, HTS (AID 449762); assay type: functional
[17] = molecular target: Sphingosine 1-phosphate receptor 3 (Homo sapiens, UniProt Q99500); experiment: Dose response cell-based high throughput screening assay for antagonists of the Sphingosine 1-Phosphate Receptor 3 (S1P3). [Related pubchem assays: 1429, 485 ]; assay type: functional
[18] = molecular target: 5-hydroxytryptamine receptor 1E (Homo sapiens, UniProt P28566); experiment: Counterscreen assay for S1P3 antagonists: Dose response cell-based high throughput screening assay to identify antagonists of the 5-Hydroxytryptamine Receptor Subtype 1E (5HT1E). [Related pubchem assays: 1429, 485 ]; assay type: functional
Cytochrome P450 2C19 = Cytochrome P450 2C19 (Homo sapiens, UniProt P33261); experiment: qHTS Assay for Inhibitors and Substrates of Cytochrome P450 2C19. [Related pubchem assays: 410 ]; assay type: ADME; settings: read-out: Potency
[19] = molecular target: Aryl hydrocarbon receptor (Homo sapiens, UniProt P35869); experiment: Luminescence-based cell-based high throughput dose response assay for activators of the Aryl Hydrocarbon Receptor (AHR). [Related pubchem assays: 2796 (Primary screen (AHR activators in singlicate)), 2845 (Confirmation screen (AHR activators in triplicate)), 434939 (Counterscreen (PXR activators in triplicate)), 2804 (Summary (AHR activators))]; assay type: ADME
NADPH oxidase 1 = NADPH oxidase 1 (Homo sapiens, UniProt Q9Y5S8); assay type: functional, cell-based;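 also: Cell-based assay with luminescence read-out, IC50 derived from inhibitor dose-response curves; intracellular ROS from endogenous NOX1 in intact HT29 colon cancer cells; potency of inhibitors that lower the ROS luminescence signal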
[20] = molecular target: Peroxisome proliferator-activated receptor gamma/Nuclear receptor corepressor 2 (Homo sapiens, UniProt P37231+Q9Y618); experiment: Counterscreen for NR2E3 inverse agonists: TR-FRET-based biochemical high throughput dose response assay to identify inverse agonists of the interaction between peroxisome proliferator-activated receptor gamma (PPARg) and nuclear receptor co-repressor 2 (NCOR2).; assay type: functional
Peroxisome proliferator-activated receptor gamma/Nuclear receptor corepressor 2, sequence (P37231 whole entry): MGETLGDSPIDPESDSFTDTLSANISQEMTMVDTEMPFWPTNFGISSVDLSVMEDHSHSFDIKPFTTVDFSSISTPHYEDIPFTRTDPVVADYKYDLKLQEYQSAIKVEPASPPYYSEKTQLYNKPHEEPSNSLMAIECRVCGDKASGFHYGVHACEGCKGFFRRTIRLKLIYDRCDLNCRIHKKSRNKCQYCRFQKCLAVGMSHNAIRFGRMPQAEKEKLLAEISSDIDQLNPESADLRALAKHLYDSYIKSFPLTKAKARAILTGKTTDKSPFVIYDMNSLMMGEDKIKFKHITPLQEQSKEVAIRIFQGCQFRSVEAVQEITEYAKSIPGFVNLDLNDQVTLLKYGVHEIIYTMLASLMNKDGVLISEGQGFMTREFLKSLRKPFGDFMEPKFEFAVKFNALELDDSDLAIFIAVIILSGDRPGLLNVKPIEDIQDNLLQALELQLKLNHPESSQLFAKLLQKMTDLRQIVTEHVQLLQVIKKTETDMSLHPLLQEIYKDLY
Peroxisome proliferator-activated receptor gamma/Nuclear receptor corepressor 2, sequence (Q9Y618 whole entry): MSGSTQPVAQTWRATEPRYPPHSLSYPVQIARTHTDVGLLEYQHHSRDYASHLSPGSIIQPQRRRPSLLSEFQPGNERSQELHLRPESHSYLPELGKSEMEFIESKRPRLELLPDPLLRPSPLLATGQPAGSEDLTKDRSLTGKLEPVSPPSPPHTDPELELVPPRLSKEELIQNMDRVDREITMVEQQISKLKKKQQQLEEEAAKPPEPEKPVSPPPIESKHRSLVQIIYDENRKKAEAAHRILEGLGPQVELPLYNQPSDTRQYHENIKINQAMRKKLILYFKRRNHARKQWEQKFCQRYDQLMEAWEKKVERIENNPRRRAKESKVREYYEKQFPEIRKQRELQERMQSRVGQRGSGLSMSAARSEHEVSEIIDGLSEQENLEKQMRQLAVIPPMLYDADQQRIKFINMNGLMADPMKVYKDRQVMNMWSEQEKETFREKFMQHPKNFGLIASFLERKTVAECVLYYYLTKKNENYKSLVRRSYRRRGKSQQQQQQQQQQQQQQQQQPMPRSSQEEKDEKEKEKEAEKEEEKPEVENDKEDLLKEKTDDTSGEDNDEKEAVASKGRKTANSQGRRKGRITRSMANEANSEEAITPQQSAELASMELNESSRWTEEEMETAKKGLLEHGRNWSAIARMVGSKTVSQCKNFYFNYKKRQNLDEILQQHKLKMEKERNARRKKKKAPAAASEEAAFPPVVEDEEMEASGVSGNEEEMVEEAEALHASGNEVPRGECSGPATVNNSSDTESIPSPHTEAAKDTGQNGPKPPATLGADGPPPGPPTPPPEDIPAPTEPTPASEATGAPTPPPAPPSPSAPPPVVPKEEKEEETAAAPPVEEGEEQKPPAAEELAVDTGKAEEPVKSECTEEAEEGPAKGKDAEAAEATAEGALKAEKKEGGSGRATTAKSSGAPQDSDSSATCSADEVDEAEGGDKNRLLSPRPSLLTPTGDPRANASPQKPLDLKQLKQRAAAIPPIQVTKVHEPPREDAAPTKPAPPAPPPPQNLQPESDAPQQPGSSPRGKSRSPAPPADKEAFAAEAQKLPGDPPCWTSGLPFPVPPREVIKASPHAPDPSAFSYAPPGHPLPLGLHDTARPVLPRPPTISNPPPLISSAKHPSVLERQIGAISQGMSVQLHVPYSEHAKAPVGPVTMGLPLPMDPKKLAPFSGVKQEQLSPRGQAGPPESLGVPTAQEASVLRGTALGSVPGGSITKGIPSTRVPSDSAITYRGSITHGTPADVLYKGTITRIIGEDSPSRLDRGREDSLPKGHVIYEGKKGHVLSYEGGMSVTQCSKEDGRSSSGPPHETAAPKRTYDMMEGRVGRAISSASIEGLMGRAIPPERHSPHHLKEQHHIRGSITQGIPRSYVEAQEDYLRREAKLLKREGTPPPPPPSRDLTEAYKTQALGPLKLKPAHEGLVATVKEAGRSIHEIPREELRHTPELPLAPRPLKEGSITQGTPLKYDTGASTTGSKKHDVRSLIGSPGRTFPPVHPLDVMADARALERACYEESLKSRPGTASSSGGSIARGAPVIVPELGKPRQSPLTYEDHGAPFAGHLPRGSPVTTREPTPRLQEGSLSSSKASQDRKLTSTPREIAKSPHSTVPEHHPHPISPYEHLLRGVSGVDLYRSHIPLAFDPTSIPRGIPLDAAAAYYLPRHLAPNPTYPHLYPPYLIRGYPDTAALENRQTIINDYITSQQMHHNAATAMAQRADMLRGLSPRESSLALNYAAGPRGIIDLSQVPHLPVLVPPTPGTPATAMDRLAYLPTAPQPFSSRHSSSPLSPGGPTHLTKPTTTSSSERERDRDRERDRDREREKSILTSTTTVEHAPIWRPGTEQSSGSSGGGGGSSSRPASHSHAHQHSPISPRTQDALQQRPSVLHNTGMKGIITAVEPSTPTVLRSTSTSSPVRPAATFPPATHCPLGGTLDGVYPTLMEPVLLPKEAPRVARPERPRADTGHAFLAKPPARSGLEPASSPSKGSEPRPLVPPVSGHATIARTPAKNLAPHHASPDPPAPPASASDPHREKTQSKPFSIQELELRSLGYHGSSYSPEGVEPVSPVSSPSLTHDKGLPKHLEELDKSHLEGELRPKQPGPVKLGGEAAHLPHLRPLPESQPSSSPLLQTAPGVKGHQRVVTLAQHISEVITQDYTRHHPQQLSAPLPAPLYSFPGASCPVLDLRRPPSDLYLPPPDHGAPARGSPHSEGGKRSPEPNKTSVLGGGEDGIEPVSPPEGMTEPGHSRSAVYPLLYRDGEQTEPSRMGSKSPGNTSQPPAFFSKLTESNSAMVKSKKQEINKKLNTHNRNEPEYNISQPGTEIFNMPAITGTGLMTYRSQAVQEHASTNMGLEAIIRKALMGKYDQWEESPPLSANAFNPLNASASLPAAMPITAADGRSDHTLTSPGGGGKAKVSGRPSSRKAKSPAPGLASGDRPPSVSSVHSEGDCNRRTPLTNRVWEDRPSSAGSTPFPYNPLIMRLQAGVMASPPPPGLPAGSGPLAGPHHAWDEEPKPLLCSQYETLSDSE

[21] = molecular target: Photoreceptor-specific nuclear receptor (Homo sapiens, UniProt Q9Y5X4); experiment: ligands suppressing NR2E3 nuclear receptor activity – biochemical, TR-FRET, dose response (AID 463256); assay type: functional

## O=C1C(Cl)=C(NCc2ccccc2)C(=O)N1c1ccc(Cl)c(Cl)c1
Bcl-2-related protein A1 [1]
  IC50: 73.7 µM (active)
Bcl-2-related protein A1 [2]
  IC50: > 100 µM (not active)
[3]
  IC50: > 100 µM (not active)

## CCCOc1cc(C)c(Cl)cc1S(=O)(=O)N(CC)CC
Mucolipin-3 [4]
  EC50: 4.72 µM (active)
Ion channel NompC [5]
  EC50: > 29.9 µM (not active)
Ion channel NompC [6]
  EC50: > 29.9 µM (not active)
Mucolipin-3 [7]
  EC50: 1.6 µM (active)

## [O-]/[N+](=C\c1ccc(OC(F)F)cc1)c1ccccc1
[8]
  IC50: > 100 µM (not active)
[9]
  EC50: > 260 µM (inactive)

## CC(NC(=O)c1ccc(Br)cc1Br)c1ccccc1 (centres undefined)
[10]
  EC50: > 120 µM (not active)

## N#C/C(=C1\CCCN1)c1nc(-c2ccccc2)cs1
[11]
  IC50: 7.67 µM (active)
[12]
  IC50: 2.44 µM (active)
Orexin receptor type 2 [13]
  IC50: > 50 µM (inactive)
[14]
  IC50: > 49.8 µM (inactive)
Orexin receptor type 2 [15]
  IC50: > 88.8 µM (inactive)
CHO-K1
  IC50: > 66.2 µM (inactive)
[16]
  IC50: > 100 µM (active)

## O=C(CSc1nnc(-c2ccc(Br)o2)n1Cc1ccccc1)c1ccccc1F
[17]
  IC50: > 50 µM (not active)
[18]
  IC50: > 50 µM (not active)

## CC(C)C[C@@H](CC(=O)N[C@H](CC(=O)N[C@@H]1CCNC[C@H]1C(=O)N[C@H](CC(=O)N[C@@H](CCC(=O)O)CC(=O)O)Cc1ccccc1)C(C)C)NC(=O)[C@@H]1CCCC[C@H]1N
Cytochrome P450 2C19
  AC50: 39.8 µM (inconclusive)

## CCOc1ccc(-c2cc(C)n3nc(C(N)=O)cc3n2)cc1
[19]
  EC50: 2.63 µM (active)

## COc1ccc2c(Cl)c(C(=O)Oc3ccccc3Cl)sc2c1
NADPH oxidase 1
  IC50: > 17 µM (not active)

## Cc1cc(=O)oc2cc(OCC(=O)NCCc3c[nH]c4ccc(F)cc34)ccc12
[20]
  IC50: 8.78 µM (active)
[21]
  IC50: 6.11 µM (active)
